Test results taken from US20230165242A1, “RODENTICIDAL BAIT AND METHOD OF CONTROLLING TARGET HARMFUL RODENTS” (priority 2020, published 2023).

What was measured:
[1] = test system: Sprague-Dawley rats that are homozygotic carriers of the Y139F mutation; experiment: Relative toxicity of cholecalciferol, single gavage dose, Y139F rats; type: in vivo, rat; details: single gavage dose 30 mg/kg; 20 days
Text: (§1) Warfarin-sensitive Sprague-Dawley rats (20 male rats and 20 female rats), male and female rats that are homozygotic carriers of the L120Q mutation, male and female Sprague-Dawley rats that are homozygotic carriers of the Y139F mutation and male and female brown rats (Rattus norvegicus) that are homozygotic carriers of the Y1 39C mutation are acclimatized for 5 days in the presence of a conventional solid feed and water in unlimited amounts. The rats are fed by gavage with a single dose of a gavage solution containing cholecalciferol (Sigma-Aldrich, France) in a solvent consisting of 95% (v/v) of oil and 5% (v/v) of DMSO. The rats are fed with a conventional solid feed and water in unlimited amounts. The amount of cholecalciferol administered is 30 mg of cholecalciferol per kilogram of body weight of the rat fed by gavage. The percentage of rats surviving gavage for 20 days, counting from the first day of gavage, is noted daily. The results given in Table 4 hereunder describe the mortality observed (“SD”, Sprague-Dawley). The amount of cholecalciferol ingested by the rodents during gavage corresponds to consumption by these rodents of a bait assayed at 300 ppm of cholecalciferol.

[2] = test system: warfarin-sensitive male OFA-Sprague-Dawley rats; experiment: Prothrombin level, Quick's time (bromadiolone / cholecalciferol gavage); type: in vivo, rat
Text: Warfarin-sensitive male OFA-Sprague-Dawley rats (Charles River, L′Arbresles, France) are fed by gavage for 3 consecutive days with a gavage solution containing bromadiolone (LIPHATECH, France) and cholecalciferol (Sigma-Aldrich, France) in a solvent consisting of 95% (v/v) of oil and 5% (v/v) of DMSO. During this period of gavage, the rats are fed with a conventional solid feed and water in unlimited amounts. The concentrations of bromadiolone and cholecalciferol in the gavage solution are 0.1 g/kg (100 ppm) and 7.5 g/kg (7500 ppm) respectively. Each rat receives daily a volume of gavage solution calculated to correspond to 1 mL of gavage solution per kilogram of body weight. The OFA-Sprague-Dawley rats in two control groups are fed by gavage in the same conditions with gavage solutions containing bromadiolone (alone) at a concentration of 100 ppm or cholecalciferol (alone) at a concentration of 7500 ppm, respectively. 24 hours after the last gavage, a volume of blood is taken from each rat by intracardiac puncture and placed in a specimen tube containing sodium citrate. The animals are euthanized after puncture and the plasma is prepared by centrifugation. Quick's time (or clotting time) is evaluated on the plasma supplemented with sodium citrate, then decalcified and recalcified in the presence of calcium thromboplastin. Quick's time is evaluated by means of an optical device for clotting analysis (Option 2plus, Bio Mèrieux®). The results are presented [FIG. 2]. The average Quick's time measured on the plasma from the rats fed by gavage with bromadiolone (bar “B”) is 12.4 seconds (±1.8), the average Quick's time measured on the plasma from the rats fed by gavage with cholecalciferol (bar “C”) is 12.4 seconds (±0.9) and the average Quick's time measured on the plasma from the rats fed by gavage with the composition comprising bromadiolone and cholecalciferol (bar “D”) is 14.1 seconds (±2.7). The differences in values of Quick's time measured between the three groups of rats are not significant. The rats in the group of rats that received the combination of bromadiolone and cholecalciferol coagulate in the same way as the rats in the group of rats that received the gavage solution containing bromadiolone on the one hand and the rats in the group of rats that received the gavage solution containing cholecalciferol on the other hand. Quick's time for rats treated with a control solution formed from oil (95%, v/v) and DMSO (5%, v/v) is (bar “A”) 12.8 seconds (±2.3). Neither the gavage solution containing bromadiolone in combination with cholecalciferol, nor the gavage solution containing bromadiolone alone, nor the gavage solution containing cholecalciferol induces an increase of Quick's time relative to the control. […]

[3] = test system: warfarin-sensitive male OFA-Sprague-Dawley rats; experiment: Dose/rodenticidal response effect of cholecalciferol; type: in vivo, rat; details: gavage, 21 days
Protocol: A gavage solution containing cholecalciferol (Sigma-Aldrich, France) in a solvent consisting of 95% (v/v) of oil and 5% (v/v) of DMSO is administered once a day for 3 consecutive days to warfarin-sensitive male OFA-Sprague-Dawley rats (Charles River, L′Arbresles, France), aged 10 weeks and with a body weight between 160 and 180 g. During this period of gavage, the rats are fed with a conventional solid feed and water in unlimited amounts. The doses of cholecalciferol administered to the OFA-Sprague-Dawley rats, given in Table 7 hereunder, are expressed in milligrams of cholecalciferol administered per kilogram of body weight of the gavage-fed rodent.
The percentage of rats surviving gavage is noted daily for 21 days counting from the first day of gavage.

[4] = test system: Warfarin-sensitive Sprague-Dawley rats; experiment: Relative toxicity of cholecalciferol, single gavage dose, “SD” rats; type: in vivo, rat; details: single gavage dose 30 mg/kg; 20 days
Text: as §1

[5] = test system: brown rats (Rattus norvegicus) that are homozygotic carriers of the Y139C mutation; experiment: Relative toxicity of cholecalciferol, single gavage dose, Y139C rats; type: in vivo; details: single gavage dose 30 mg/kg; 20 days
Text: as §1

Compound: C=C1CC[C@H](O)C/C1=C/C=C1\CCC[C@]2(C)[C@@H]([C@H](C)CCCC(C)C)CC[C@@H]12 [cholecalciferol]
- Female mortality, % [1]: 0%
- Male mortality, % [1]: 30%
- anticoagulant effect (increase of Quick's time relative to the control) ([2]; 3 daily gavages, bromadiolone 100 ppm and/or cholecalciferol 7500 ppm solution, 1 mL/kg): not anticoagulants
- average Quick's time (clotting time) ([2]; plasma 24 hours after last of 3 daily gavages, 1 mL/kg of solution with bromadiolone 100 ppm and/or cholecalciferol 7500 ppm): 12.4 s
- Mortality, % ([3]; dose 5 mg/kg once a day for 3 days): 20%
- Mortality, % ([3]; dose 7.5 mg/kg once a day for 3 days): 30%
- Female mortality, % [4]: 30%
- Male mortality, % [4]: 10%
- Female mortality, % [5]: 0%
- Male mortality, % [5]: 30%
